According to PubChem BioAssay (NCI):
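Each compound was tested at five concentrations against cells in 96-well plates for 48 hours. The concentration for 50% growth inhibition is given as GI50. TGI is the concentration that stops growth completely.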

Legend:
Assay in all cases: NCI tumour cell line growth inhibition, 48 h
786-0 renal = system: 786-0 renal
CCRF-CEM leukemia = system: CCRF-CEM leukemia
HCT-116 colon = system: HCT-116 colon
HT29 colon = system: HT29 colon
SF-268 CNS = system: SF-268 CNS
SK-MEL-2 melanoma = system: SK-MEL-2 melanoma
SK-MEL-5 melanoma = system: SK-MEL-5 melanoma
SNB-19 CNS = system: SNB-19 CNS
SW-620 colon = system: SW-620 colon

| Structure (SMILES) | GI50 (786-0 renal) | TGI (786-0 renal) | GI50 (CCRF-CEM leukemia) | TGI (CCRF-CEM leukemia) | GI50 (HCT-116 colon) | TGI (HCT-116 colon) | GI50 (HT29 colon) | TGI (HT29 colon) | GI50 (SF-268 CNS) | TGI (SF-268 CNS) | GI50 (SK-MEL-2 melanoma) | TGI (SK-MEL-2 melanoma) | GI50 (SK-MEL-5 melanoma) | TGI (SK-MEL-5 melanoma) | GI50 (SNB-19 CNS) | TGI (SNB-19 CNS) | GI50 (SW-620 colon) | TGI (SW-620 colon) |
| --- | --- | --- | --- | --- | --- | --- | --- | --- | --- | --- | --- | --- | --- | --- | --- | --- | --- | --- |
| COc1ccc(-c2nc(-c3nc4ccc(OC)cc4[nH]3)cc3c2[nH]c2ccccc23)cc1 | 4.62 µM | > 100 µM | 0.887 µM | > 100 µM | 2.48 µM | > 100 µM | 3.46 µM | > 100 µM | 4.9 µM | > 100 µM | 3.31 µM | 49.2 µM | 2.18 µM | > 100 µM | 3.37 µM | > 100 µM | 4.83 µM | > 100 µM |
| Cc1ccc(C)c(-c2csc(Nc3ccc(C)c(C)c3)n2)c1 | 39.5 µM | > 100 µM | > 100 µM | > 100 µM | > 100 µM | > 100 µM | > 100 µM | > 100 µM | 29.8 µM | > 100 µM | > 100 µM | > 100 µM | > 100 µM | > 100 µM | 77 µM | > 100 µM | > 100 µM | > 100 µM |
| COC(=O)C1=C(CO)C2C=CC1C2 (stereo not given) |  | > 100 µM |  | > 100 µM |  | > 100 µM |  | > 100 µM |  | > 100 µM |  | > 100 µM |  | > 100 µM |  | > 100 µM |  | > 100 µM |
| C[C@@]12CCC(=O)C=C1CC[C@H]1C2=CC[C@]2(C)C1CC[C@@]2(C)O (stereo not given in full) |  | > 100 µM |  | > 100 µM |  | > 100 µM |  | > 100 µM |  | > 100 µM |  | > 100 µM |  | > 100 µM |  | > 100 µM |  | > 100 µM |
| N#Cc1ccnc(N2C(=O)CC[C@H]2C(=O)N(c2cncc(F)c2)[C@H](C(=O)NC2CC(F)(F)C2)c2ccccc2Cl)c1 | > 100 µM | > 100 µM | > 100 µM | > 100 µM | 29.9 µM | > 100 µM | 56.2 µM | > 100 µM | 56.2 µM | > 100 µM | > 100 µM | > 100 µM | > 100 µM | > 100 µM | > 100 µM | > 100 µM | > 100 µM | > 100 µM |
| CSc1nc2sc3cc(Cl)ccc3n2c(=N)c1C#N | 6.15 µM | 24 µM |  | > 100 µM | > 25.7 µM | > 100 µM | 5.35 µM | > 100 µM | 14 µM | > 100 µM | 15.5 µM | 48.5 µM | 3.2 µM | > 25.9 µM | > 64.2 µM | > 100 µM | 38.2 µM | > 100 µM |
| COc1ccc2c(c1)CC[C@@H]1[C@@H]2CC[C@]2(C)C(c3ccco3)=C(C=O)C[C@@H]12 | 23.1 µM | 55.5 µM | 1.86 µM | 4.85 µM | 2.95 µM | 12.8 µM | 5.37 µM | > 100 µM | 13.6 µM | > 100 µM | 29.2 µM | 88.1 µM | 5.72 µM | 19 µM | 9.3 µM | > 100 µM | 6.26 µM | > 100 µM |
| CC(=O)N=c1ccc2nc3c(cc(N)c4ccccc43)oc-2c1 | 1.46 µM | 2.93 µM | 0.7 µM | 5.65 µM | 0.323 µM | 1.24 µM | 2.09 µM | 4.62 µM | 1.66 µM | 3.43 µM | 1.57 µM | 3.34 µM | 0.33 µM | 1.35 µM | 1.71 µM | 3.46 µM | 0.745 µM | 2.39 µM |
| C=C1C(=O)O[C@H]2[C@H]1CC/C(COC(=O)NCc1c[nH]c3ccc(Cl)cc13)=C\CC[C@@]1(C)O[C@@H]21 | 1.07 µM | 2.49 µM | 0.341 µM | 1.88 µM | 1.27 µM | 2.61 µM | 0.625 µM | 2.12 µM | 1.66 µM | 3.51 µM | 1.42 µM | 2.87 µM | 1.64 µM | 3.01 µM | 3.72 µM | 14.7 µM | 0.657 µM | 2.2 µM |
| NS(=O)(=O)c1ccc(N2N=C3c4ccccc4CC3C2c2ccc(Cl)cc2)cc1 (stereo not given) | 6.28 µM | 24.9 µM | 6.48 µM | 42.4 µM | 6.04 µM | > 100 µM | 15.7 µM | > 100 µM | 22.1 µM | 54 µM | 8.23 µM | 28.4 µM | 2.3 µM | 5.85 µM | 17.3 µM | > 100 µM | 4.71 µM | 29.8 µM |
| CC(C)=CC(=O)Cc1nc2cc(C)c(C)cc2[nH]c1=O |  | > 100 µM |  | > 100 µM |  | > 100 µM |  | > 100 µM |  | > 100 µM |  | > 100 µM |  | > 100 µM |  | > 100 µM |  | > 100 µM |
